Read-outs that look alike come from different tables or passages of the source.
Tests used:
[1] = tested on: myzus persicae; settings: in vivo
[2] = tested on: Helicoverpa armigera
[3] = tested on: asparagus caterpillar; settings: in vivo

| Compound | mortality(%) myzus persicae (600 μg/mL) [1] [%] | mortality(%) Helicoverpa armigera (500 μg/mL) ([2]; 500 μg/mL, 48 hours) [%] | mortality(%) asparagus caterpillar (500 μg/mL) [3] [%] | mortality(%) Helicoverpa armigera (500 μg/mL) ([2]; in vivo) [%] |
| --- | --- | --- | --- | --- |
| CCC=NNC(=N[N+](=O)[O-])NCc1ccccc1 [Compound 14] | 18.8 | 40 | 30 | – |
| CC(C)C=NNC(=N[N+](=O)[O-])NCc1ccccc1 [Compound 7] | 18.4 | 40 | 50 | – |
| C#CCNC(=N[N+](=O)[O-])NN=CCCC [Compound 28] | 11.4 | 60 | 70 | – |
| C#CCNC(=N[N+](=O)[O-])NN=CCCCC [Compound 54] | 47.6 | 40 | 10 | – |
| C=CC=NNC(=N[N+](=O)[O-])NCc1ccccc1 [Compound 44] | 45.8 | 30 | 0 | – |
| C=CCNC(=N[N+](=O)[O-])NN=Cc1ccccc1OC [Compound 76] | 3.4 | 40 | 80 | – |
| CCCCNC(=N[N+](=O)[O-])NN=Cc1ccccc1Cl [Compound 91] | 1.2 | – | 80 | 0 |
| CCCNC(=N[N+](=O)[O-])NN=CC(C)C [Compound 3] | 14.4 | 30 | 20 | – |
| CCNC(=N[N+](=O)[O-])NN=CC=C(C)CCC=C(C)C [Compound 17] | 19.8 | – | 40 | 40 |
| CC=CC=NNC(=N[N+](=O)[O-])NCc1ccccc1 [Compound 37] | – | 70 | 20 | – |
| CN(C)c1ccc(C=NNC(=N[N+](=O)[O-])NCc2ccccc2)cc1 [Compound 71] | – | – | 90 | 30 |
| CC=CC=NNC(=N[N+](=O)[O-])NCCCC [Compound 34] | – | 40 | 60 | – |
| CCCC=NNC(=N[N+](=O)[O-])NCCC [Compound 25] | – | 50 | 10 | – |
| CCCCCCC=NNC(=N[N+](=O)[O-])NCCCC [Compound 46] | – | 20 | 30 | – |
| O=[N+]([O-])N=C(NCc1ccc(Cl)nc1)NN=Cc1ccc(Cl)cc1 [Compound 108] | – | – | 50 | 50 |
| C=CC=NNC(=N[N+](=O)[O-])NCC [Compound 39] | – | 20 | 40 | – |
| CCCC=NNC(=N[N+](=O)[O-])NCc1ccccc1 [Compound 29] | – | 60 | 50 | – |
| C=CCNC(=N[N+](=O)[O-])NN=CCC [Compound 12] | – | 30 | 40 | – |
| CCCNC(=N[N+](=O)[O-])NN=CC=C(C)CCC=C(C)C [Compound 18] | – | – | 60 | 50 |
| CCCNC(=N[N+](=O)[O-])NN=Cc1ccc(N(C)C)cc1 [Compound 70] | – | – | 80 | 40 |
| COc1ccccc1C=NNC(=N[N+](=O)[O-])NCc1ccc(Cl)nc1 [Compound 109] | – | – | 90 | 40 |
| C#CCNC(=N[N+](=O)[O-])NN=CC=C [Compound 43] | – | 40 | 20 | – |

From patent US20110306639A1, “HYDROCARBYLIDENE NITROHYDROZINECARBOXIMIDAMIDES AND A METHOD FOR MAKING THE SAME, AS WELL AS THEIR USES AS AN INSECTICIDE” (priority 2008, published 2011)
